Assay results as given in patent publication US10301256B2, “Sulfonamide and sulfinamide prodrugs of fumarates and their use in treating various diseases” (Alkermes Pharma Ireland Limited, priority 2014, dated 2019).
Where a name gives a salt, the structure may show the parent alone.

Assays:
[1] = Physical stability in crystalline form by thermogravimetric analysis (TGA); assay type: physicochemical; details: 55° C.; for weight loss vs time (TGA): crystalline form
Experimental: The physical stability of compounds of the present invention and dimethyl fumarate (DMF) were measured via thermogravimetric analysis (TGA).

[2] = Chemical stability of MMF prodrugs in pH 8 phosphate buffer; assay type: physicochemical; details: 50 mM buffer phosphate pH 8, 37° C., HPLC-UV, first-order decay
Experimental: Stock solutions of the compounds in acetonitrile or acetonitrile/MeOH were prepared at 0.05M. A 0.010 mL aliquot of the stock was spiked into 1 mL of 50 mM buffer phosphate pH 8 and incubated at 37° C. Typically, aliquots (0.010 mL) were sampled at different time points and immediately injected in the HPLC with UV detection (211 nm). The peak areas corresponding to the compounds were plotted against time and the data were fitted to a first-order mono-exponential decay where the rate constant and the half-life were determined from the slope (Table 2).

Structure (SMILES) | weight loss vs time (TGA) [1] | pH 8 (t½, min) [2] [min] | weight loss (TGA) ([1]; in less than 2 hours) [%]
COC(=O)/C=C/C(=O)OCCN(C)S(C)(=O)=O [Compound 1, Methyl (2-(N-methylmethylsulfonamido)ethyl) fumarate] | no change | 187 | –
COC(=O)/C=C/C(=O)OCCNS(C)(=O)=O [Compound 2, Methyl (2-(methylsulfonamido)ethyl) fumarate] | no change | 143.5 | –
COC(=O)/C=C/C(=O)OCCN1CCCS1(=O)=O [Compound 6, 2-(1,1-Dioxidoisothiazolidin-2-yl)ethyl methyl fumarate] | – | 202 | –
COC(=O)/C=C/C(=O)OC [DMF, dimethyl fumarate, reference compound] | – | – | ~100
